{
  "source": "patent US20230106535A1",
  "about": "“TECHNIQUES FOR DETERMINING CALCIMIMETIC DRUG ACTIVITY” (Fresenius Medical Care Holdings, Inc., priority 2021, published 2023)",
  "origin": "cited, not measured here",
  "key": {"[1]": {"test_system": "PTH", "settings": "n=343, Source E"}, "[2]": {"test_system": "iPTH, serum ionized Ca, phosphate"}, "[3]": {"settings": "healthy subjects; plasma concentration declines tri-exponentially"}, "[4]": {"assay": "not given", "remark": "listed apart in the source"}, "[5]": {"test_system": "corrected serum calcium", "settings": "clinical studies"}, "[6]": {"settings": "long term studies, within 12 weeks"}},
  "data": [
    {"smiles": "C[C@@H](NCCCc1cccc(C(F)(F)F)c1)c1cccc2ccccc12", "note": "[cinacalcet]", "values": [
      {"measurement": "patients with PTH reduction >30% from baseline, clinical results", "setting": "[1]", "value": 57.7, "unit": "%"},
      {"measurement": "patients with PTH reduction >50% from baseline, clinical results", "setting": "[1]", "value": 40.2, "unit": "%"}
    ]},
    {"smiles": "CC(=O)N[C@H](CSSC[C@H](N)C(=O)O)C(=O)N[C@H](C)C(=O)N[C@H](CCCNC(=N)N)C(=O)N[C@H](CCCNC(=N)N)C(=O)N[C@H](CCCNC(=N)N)C(=O)N[C@H](C)C(=O)N[C@H](CCCNC(=N)N)C(N)=O", "note": "[etelcalcetide]", "values": [
      {"measurement": "rate of conversion from SAPC to etelcalcetide relative to conversion of etelcalcetide to SAPC", "setting": "faster", "value": "roughly 16 fold"},
      {"measurement": "rate of conversion from SAPC to etelcalcetide relative to dialytic rate constant", "setting": "slower", "value": "approximately 200 fold"},
      {"measurement": "etelcalcetide dose cleared by HD", "setting": "within 15 minutes, almost all cleared as intact etelcalcetide", "value": "approximately 70%"},
      {"measurement": "highest changes in Ca concentration", "setting": "[2]; HD patients, after a 60 mg administration", "value": "around 15%"},
      {"measurement": "time to decline of iCa concentration", "setting": "[2]; HD patients, after administration, dose-dependent", "value": "≤ 10", "unit": "h"},
      {"measurement": "time to lowering of intact PTH (iPTH)", "setting": "[2]; after a single dose", "value": "≤ 30", "unit": "min"},
      {"measurement": "time to iCa plateau", "setting": "[2]; after a single dose administration", "value": 56, "unit": "h"},
      {"measurement": "iCa decline before reaching a plateau", "setting": "[2]; [6]", "value": "around 10%"},
      {"measurement": "phosphate decline before reaching a plateau", "setting": "[2]; [6]", "value": "~5", "unit": "%"},
      {"measurement": "time to plateau in iPTH", "setting": "[2]; post single dose administration", "value": 1, "unit": "h"},
      {"measurement": "time to decrease in phosphate", "setting": "[2]; post-administration", "value": "about 4 hours"},
      {"measurement": "time after which iCa gradually decreases", "setting": "[2]; single dose", "value": "about 18 hours"},
      {"measurement": "time phosphate remains low", "setting": "[2]; single dose", "value": "about 4 days"},
      {"measurement": "time serum ionized Ca (iCa) remains stable", "setting": "[2]; single dose", "value": 8, "unit": "h"},
      {"measurement": "terminal half-life", "setting": "[3]", "value": "around 20 hours"},
      {"measurement": "time to steady state of etelcalcetide plasma concentration", "setting": "[4]; clinical studies, multiple 2.5 mg or 5 mg administrations after every HD session", "value": "about 4 weeks"},
      {"measurement": "biotransformation resulting in (reversible) formation of SAPC", "setting": "[4]; human, in vivo", "value": "roughly 60%"},
      {"measurement": "etelcalcetide undergoing biotransformation", "setting": "[4]; human, in vivo", "value": "approximately 90%"},
      {"measurement": "half-life", "setting": "[4]; patients on intermittent HD", "value": "~50", "unit": "days"},
      {"measurement": "patients with at least one corrected calcium value below 8.3 mg/dl", "setting": "[5]", "value": 79, "unit": "%"},
      {"measurement": "patients with at least one corrected serum calcium value below 7 mg/dl", "setting": "[5]", "value": "around 7.6%"}
    ]}
  ]
}
